{"source": "patent US20240358767A1", "about": "“STEM CELL DIFFERENTIATION AND CHEMICAL COMPOUNDS” (VERTEX PHARMACEUTICALS INCORPORATED, priority 2021, published 2024)", "key": {"Stem cells [1]": {"system": "Stem cells", "assay": "384-well screen of small molecule compounds for Stage 1 differentiation to Sox17-positive definitive endoderm cells (immunostaining, DAPI)", "details": "for signal in Oct 4 channel / signal in Sox17 channel: 10 ng/mL AA plus test compound, about 8 concentrations, dose-responsive manner; for Relative to 100 ng/mL AA (percentage of Sox17-positive cells normalized by the percentage with 100 ng/mL AA): Stage 1 condition with 10 ng/mL AA and the test compound, 384-well plates; for nuclear blebbing in the resulting cell population: visual inspection"}, "EZH2": {"biological_target": "EZH2 (Homo sapiens, UniProt Q15910)", "sequence (Q15910 whole entry, species assumed)": "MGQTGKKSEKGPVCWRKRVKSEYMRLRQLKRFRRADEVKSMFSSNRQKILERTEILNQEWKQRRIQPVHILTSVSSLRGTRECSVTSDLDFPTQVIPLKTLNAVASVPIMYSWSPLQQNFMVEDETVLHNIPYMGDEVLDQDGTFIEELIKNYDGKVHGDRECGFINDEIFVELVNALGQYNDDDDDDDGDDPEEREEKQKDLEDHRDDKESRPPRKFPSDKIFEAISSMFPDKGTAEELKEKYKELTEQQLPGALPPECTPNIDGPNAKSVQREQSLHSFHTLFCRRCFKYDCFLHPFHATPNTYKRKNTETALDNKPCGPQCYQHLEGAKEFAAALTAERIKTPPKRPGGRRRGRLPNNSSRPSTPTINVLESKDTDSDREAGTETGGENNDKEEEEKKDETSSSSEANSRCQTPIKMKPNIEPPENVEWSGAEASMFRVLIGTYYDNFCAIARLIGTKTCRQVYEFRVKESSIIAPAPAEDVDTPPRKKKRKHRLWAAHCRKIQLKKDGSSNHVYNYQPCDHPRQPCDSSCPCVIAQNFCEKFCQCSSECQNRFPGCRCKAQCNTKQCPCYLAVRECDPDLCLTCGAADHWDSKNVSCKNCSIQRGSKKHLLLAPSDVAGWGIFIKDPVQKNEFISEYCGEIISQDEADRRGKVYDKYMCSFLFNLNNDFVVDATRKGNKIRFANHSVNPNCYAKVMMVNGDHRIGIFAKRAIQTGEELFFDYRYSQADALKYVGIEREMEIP", "sequence (O75530 whole entry partner, species assumed)": "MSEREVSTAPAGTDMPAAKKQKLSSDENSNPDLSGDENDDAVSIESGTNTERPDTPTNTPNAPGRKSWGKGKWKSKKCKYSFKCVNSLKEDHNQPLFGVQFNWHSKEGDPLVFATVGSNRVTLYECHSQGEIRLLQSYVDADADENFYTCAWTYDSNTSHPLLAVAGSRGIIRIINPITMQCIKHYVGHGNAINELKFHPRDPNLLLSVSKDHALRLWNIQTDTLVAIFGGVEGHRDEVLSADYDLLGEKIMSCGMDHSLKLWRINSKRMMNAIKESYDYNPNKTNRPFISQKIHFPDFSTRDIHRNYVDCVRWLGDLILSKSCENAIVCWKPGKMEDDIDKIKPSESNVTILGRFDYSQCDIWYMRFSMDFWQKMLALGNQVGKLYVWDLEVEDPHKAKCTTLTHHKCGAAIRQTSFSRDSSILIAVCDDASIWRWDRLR", "sequence (Q15022 whole entry partner, species assumed)": "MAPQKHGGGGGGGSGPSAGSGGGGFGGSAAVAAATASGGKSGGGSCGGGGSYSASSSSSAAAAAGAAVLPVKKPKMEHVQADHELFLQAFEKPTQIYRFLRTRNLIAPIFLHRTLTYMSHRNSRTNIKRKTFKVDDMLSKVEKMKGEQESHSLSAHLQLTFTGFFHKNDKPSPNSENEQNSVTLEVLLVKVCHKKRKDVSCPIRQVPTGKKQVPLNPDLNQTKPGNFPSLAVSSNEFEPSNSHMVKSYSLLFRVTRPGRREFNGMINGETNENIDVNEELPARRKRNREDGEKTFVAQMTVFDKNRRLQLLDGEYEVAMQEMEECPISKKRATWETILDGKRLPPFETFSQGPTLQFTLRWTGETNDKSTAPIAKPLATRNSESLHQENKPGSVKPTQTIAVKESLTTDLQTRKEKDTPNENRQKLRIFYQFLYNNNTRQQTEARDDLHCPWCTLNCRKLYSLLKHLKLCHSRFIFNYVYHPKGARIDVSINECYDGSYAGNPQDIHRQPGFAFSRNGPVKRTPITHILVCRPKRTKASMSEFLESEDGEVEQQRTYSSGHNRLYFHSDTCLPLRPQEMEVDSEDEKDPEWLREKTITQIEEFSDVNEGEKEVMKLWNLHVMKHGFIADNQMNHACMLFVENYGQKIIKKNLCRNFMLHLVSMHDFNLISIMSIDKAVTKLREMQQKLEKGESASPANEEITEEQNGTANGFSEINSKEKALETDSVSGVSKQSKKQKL", "details": "cited from earlier work"}, "Stem cells [2]": {"system": "Stem cells"}}, "note": "Like-named read-outs stand apart in the source and are kept apart here."}
{"smiles": "COc1ccc(-c2ccc3c(N4CCOC[C@@H]4C)nc(N4CCOC[C@@H]4C)nc3n2)cc1CO", "note": "[AZD8055]", "values": [{"measurement": "signal in Oct 4 channel", "setting": "Stem cells [1]", "result": "decrease"}, {"measurement": "signal in Sox17 channel", "setting": "Stem cells [1]", "result": "increase"}, {"measurement": "Relative to 100 ng/mL AA (percentage of Sox17-positive cells normalized by the percentage with 100 ng/mL AA)", "setting": "Stem cells [1]", "result": 117, "unit": "%"}, {"measurement": "nuclear blebbing in the resulting cell population", "setting": "Stem cells [1]", "result": "not to induce"}]}
{"smiles": "Cc1c(CN2CCN(C(=O)[C@H](C)O)CC2)sc2c(N3CCOCC3)nc(-c3cnc(N)nc3)nc12", "note": "[Apitolisib]", "values": [{"measurement": "Relative to 100 ng/mL AA (percentage of Sox17-positive cells normalized by the percentage with 100 ng/mL AA)", "setting": "Stem cells [1]", "result": 168, "unit": "%"}]}
{"smiles": "Nc1nc(-c2nn(Cc3ccccc3F)c3ncccc23)ncc1C1CC1", "note": "[BAY 41-2272]", "values": [{"measurement": "signal in Oct 4 channel", "setting": "Stem cells [1]", "result": "decrease"}, {"measurement": "signal in Sox17 channel", "setting": "Stem cells [1]", "result": "increase"}, {"measurement": "Relative to 100 ng/mL AA (percentage of Sox17-positive cells normalized by the percentage with 100 ng/mL AA)", "setting": "Stem cells [1]", "result": 145, "unit": "%"}, {"measurement": "nuclear blebbing in the resulting cell population", "setting": "Stem cells [1]", "result": "not to induce"}]}
{"smiles": "CCN1CCN(Cc2ccc(C(=O)Nc3ccc(C)c(Oc4ccc5c(c4)CC(=O)N5)c3)cc2C(F)(F)F)CC1", "note": "[DDR1-IN-1]", "values": [{"measurement": "signal in Oct 4 channel", "setting": "Stem cells [1]", "result": "decrease"}, {"measurement": "signal in Sox17 channel", "setting": "Stem cells [1]", "result": "increase"}, {"measurement": "Relative to 100 ng/mL AA (percentage of Sox17-positive cells normalized by the percentage with 100 ng/mL AA)", "setting": "Stem cells [1]", "result": 120, "unit": "%"}, {"measurement": "nuclear blebbing in the resulting cell population", "setting": "Stem cells [1]", "result": "not to induce"}]}
{"smiles": "O=C(c1ccc(-c2nc3ccc(F)cc3o2)cc1)N1CCN(C(=O)C2(O)CC2)CC1", "note": "[FT113]", "values": [{"measurement": "Relative to 100 ng/mL AA (percentage of Sox17-positive cells normalized by the percentage with 100 ng/mL AA)", "setting": "Stem cells [1]", "result": 64, "unit": "%"}]}
{"smiles": "Cc1c(CN2CCN(S(C)(=O)=O)CC2)sc2c(N3CCOCC3)nc(-c3cnc(N)nc3)nc12", "note": "[GNE-477]", "values": [{"measurement": "signal in Oct 4 channel", "setting": "Stem cells [1]", "result": "decrease"}, {"measurement": "signal in Sox17 channel", "setting": "Stem cells [1]", "result": "increase"}, {"measurement": "Relative to 100 ng/mL AA (percentage of Sox17-positive cells normalized by the percentage with 100 ng/mL AA)", "setting": "Stem cells [1]", "result": 160, "unit": "%"}, {"measurement": "nuclear blebbing in the resulting cell population", "setting": "Stem cells [1]", "result": "not to induce"}]}
{"smiles": "CC[C@H](C)n1cc(C)c2c(C(=O)NCc3c(C)cc(C)[nH]c3=O)cc(-c3ccc(N4CCNCC4)nc3)cc21", "note": "[GSK126]", "values": [{"measurement": "selectivity over EZH1", "setting": "EZH2; EZH2 vs EZH1", "result": 150, "unit": "fold"}]}
{"smiles": "CC(C)n1c([C@H](C)Nc2ncnc(N)c2C#N)cc2cccc(-c3ccc(=O)n(C)c3)c2c1=O", "note": "[IPI-3063]", "values": [{"measurement": "signal in Oct 4 channel", "setting": "Stem cells [1]", "result": "decrease"}, {"measurement": "signal in Sox17 channel", "setting": "Stem cells [1]", "result": "increase"}, {"measurement": "Relative to 100 ng/mL AA (percentage of Sox17-positive cells normalized by the percentage with 100 ng/mL AA)", "setting": "Stem cells [1]", "result": 130, "unit": "%"}, {"measurement": "nuclear blebbing in the resulting cell population", "setting": "Stem cells [1]", "result": "not to induce"}]}
{"smiles": "O=C(Nc1cccc2cccnc12)c1ccc(N2C(=O)[C@@H]3[C@H](C2=O)[C@@H]2C=C[C@H]3C2)cc1", "note": "[IWR-1-endo]", "values": [{"measurement": "nuclear blebbing in the resulting cell population", "setting": "Stem cells [2]", "result": "not to induce"}, {"measurement": "signal in Oct 4 channel", "setting": "Stem cells [1]", "result": "decrease"}, {"measurement": "signal in Sox17 channel", "setting": "Stem cells [1]", "result": "increase"}]}
{"smiles": "CC(C)N1CCN(Cc2cnc(-c3cc(-c4cccc5[nH]ccc45)cc4[nH]ncc34)o2)CC1", "note": "[Nemiralisib]", "values": [{"measurement": "signal in Oct 4 channel", "setting": "Stem cells [1]", "result": "decrease"}, {"measurement": "signal in Sox17 channel", "setting": "Stem cells [1]", "result": "increase"}, {"measurement": "nuclear blebbing in the resulting cell population", "setting": "Stem cells [1]", "result": "not to induce"}]}
{"smiles": "COc1ncc(-c2ccc3nccc(-c4ccnnc4)c3c2)cc1NS(=O)(=O)c1ccc(F)cc1F", "note": "[Omipalisib]", "values": [{"measurement": "signal in Oct 4 channel", "setting": "Stem cells [1]", "result": "decrease"}, {"measurement": "signal in Sox17 channel", "setting": "Stem cells [1]", "result": "increase"}, {"measurement": "Relative to 100 ng/mL AA (percentage of Sox17-positive cells normalized by the percentage with 100 ng/mL AA)", "setting": "Stem cells [1]", "result": 75, "unit": "%"}, {"measurement": "nuclear blebbing in the resulting cell population", "setting": "Stem cells [1]", "result": "not to induce"}]}
{"smiles": "COc1ccc(-c2sc(NC(=O)C(C)(C)C)nc2C)cc1S(=O)(=O)Nc1ccc(O)cc1", "note": "[PI4KIIIbeta-IN-10]", "values": [{"measurement": "signal in Oct 4 channel", "setting": "Stem cells [1]", "result": "decrease"}, {"measurement": "signal in Sox17 channel", "setting": "Stem cells [1]", "result": "increase"}, {"measurement": "nuclear blebbing in the resulting cell population", "setting": "Stem cells [1]", "result": "not to induce"}]}
{"smiles": "CCCc1cc(C)[nH]c(=O)c1CNC(=O)c1cc(-c2ccc(N3CCN(C(C)C)CC3)nc2)cc2c1cnn2C(C)C", "note": "[UNC1999]", "values": [{"measurement": "selectivity compared with GSK126", "setting": "EZH2", "result": "less selective"}]}
{"smiles": "Cc1nc2c(-c3cnc(N)nc3)nc(N3CCOCC3)nc2n1C(C)C", "note": "[VS-5584]", "values": [{"measurement": "nuclear blebbing in the resulting cell population", "setting": "Stem cells [2]", "result": "not to induce"}]}
{"smiles": "Nc1ccc(C(=O)Nc2cccc(-c3nc(N4CCOCC4)c4oc5ncccc5c4n3)c2)cn1", "note": "[YM201636]", "values": [{"measurement": "signal in Oct 4 channel", "setting": "Stem cells [1]", "result": "decrease"}, {"measurement": "signal in Sox17 channel", "setting": "Stem cells [1]", "result": "increase"}]}
